According to ChEMBL document CHEMBL2202996, “Synthesis, evaluation, and radiolabeling of new potent positive allosteric modulators of the metabotropic glutamate receptor 2 as potential tracers for positron emission tomography imaging” (J Med Chem, 2012):

Legend:
[1] = Fraction unbound in human plasma; format: ADME, cell-free
[2] = Fraction unbound in rat plasma; format: ADME, cell-free
Liver microsomes [3] = assay: Drug metabolism in rat liver microsomes assessed as M+O oxidative metabolite; format: ADME, Microsome
Liver microsomes [4] = assay: Drug metabolism in human liver microsomes assessed as M+O oxidative metabolite; format: ADME, Microsome
Liver microsomes [5] = assay: Drug metabolism in rat liver microsomes assessed as O-methylated compound derivative; format: ADME, Microsome
Liver microsomes [6] = assay: Drug metabolism in human liver microsomes assessed as O-methylated compound derivative; format: ADME, Microsome
[7] = molecular target: T1, Metabotropic glutamate receptor 2 (Homo sapiens, UniProt Q14416); assay: Agonist activity at human mGLuR2 expressed in CHO cell membrane assessed as […] after 30 mins by scintillation counting relative to control; format: functional, cell membranes
Target sequence in this assay (Q14416 19-872 limits assumed): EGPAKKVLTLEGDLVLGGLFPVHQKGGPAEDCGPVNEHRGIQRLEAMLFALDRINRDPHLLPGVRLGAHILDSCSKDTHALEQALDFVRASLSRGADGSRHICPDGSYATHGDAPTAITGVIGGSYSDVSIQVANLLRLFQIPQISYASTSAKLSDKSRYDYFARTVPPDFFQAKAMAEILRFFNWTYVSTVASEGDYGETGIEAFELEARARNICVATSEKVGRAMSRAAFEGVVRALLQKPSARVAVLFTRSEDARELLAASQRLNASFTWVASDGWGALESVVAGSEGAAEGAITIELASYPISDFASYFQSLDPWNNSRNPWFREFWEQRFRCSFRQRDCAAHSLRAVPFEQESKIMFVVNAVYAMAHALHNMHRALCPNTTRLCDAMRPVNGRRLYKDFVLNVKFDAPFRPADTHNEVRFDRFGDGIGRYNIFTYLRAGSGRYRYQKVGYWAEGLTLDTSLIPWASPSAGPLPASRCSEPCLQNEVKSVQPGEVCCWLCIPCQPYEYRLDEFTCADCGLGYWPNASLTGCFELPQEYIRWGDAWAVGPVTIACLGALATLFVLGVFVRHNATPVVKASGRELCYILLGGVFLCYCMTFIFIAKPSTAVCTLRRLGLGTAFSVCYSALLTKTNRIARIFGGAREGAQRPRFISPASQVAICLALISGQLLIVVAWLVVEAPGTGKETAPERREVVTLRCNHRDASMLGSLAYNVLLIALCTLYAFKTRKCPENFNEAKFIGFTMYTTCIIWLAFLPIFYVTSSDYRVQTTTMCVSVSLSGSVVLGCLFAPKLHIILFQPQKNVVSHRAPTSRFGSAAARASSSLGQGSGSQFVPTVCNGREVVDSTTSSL

CHO [8] = assay: Selectivity ratio for rat mGluR6 to human mGluR2 expressed in CHO cell membranes; format: cell-based
CHO [9] = assay: Selectivity ratio for human mGluR4 to human mGluR2 expressed in CHO cell membranes; format: cell-based
HEK293 [10] = assay: Selectivity ratio for human mGluR8 expressed in HEK293 cells to human mGluR2 expressed in CHO cell membranes; format: cell-based
HEK293 [11] = assay: Selectivity ratio for human mGluR7 expressed in HEK293 cells to human mGluR2 expressed in CHO cell membranes; format: cell-based
HEK293 [12] = assay: Selectivity ratio for human mGluR5 expressed in HEK293 cells to human mGluR2 expressed in CHO cell membranes; format: cell-based
HEK293 [13] = assay: Selectivity ratio for human mGluR3 expressed in HEK293 cells to human mGluR2 expressed in CHO cell membranes; format: cell-based
HEK293 [14] = assay: Selectivity ratio for human mGluR1 expressed in HEK293 cells to human mGluR2 expressed in CHO cell membranes; format: cell-based
[15] = Metabolic stability in Wistar rat cerebellum assessed as intact tracer at 74 MBq, iv measured at 30 mins post administration by gamma counting; format: ADME, organism-based; conditions: read-out: Stability
[16] = Metabolic stability in Wistar rat cerebrum assessed as intact tracer at 74 MBq, iv measured at 30 mins post administration by gamma counting; format: ADME, organism-based; conditions: read-out: Stability
[17] = Metabolic stability in Wistar rat plasma assessed as intact tracer at 74 MBq, iv measured at 30 mins post administration by gamma counting; format: ADME, organism-based; conditions: read-out: Stability
Rattus norvegicus = assay: Biodistribution in Wistar rat urinary system at 22 Mbq, iv measured at 60 mins post administration by gamma counting; format: ADME, organism-based, Urine; conditions: in vivo, 1 h
Liver = assay: Biodistribution in Wistar rat liver at 22 Mbq, iv measured at 60 mins post administration by gamma counting; format: ADME, organism-based; conditions: in vivo, 1 h
Intestine = assay: Biodistribution in Wistar rat intestine at 22 Mbq, iv measured at 60 mins post administration by gamma counting; format: ADME, organism-based; conditions: in vivo, 1 h
Brain [18] = assay: Ratio of SUV in total brain in iv dosed Wistar at 2 mins post administration by gamma counting to SUV in total brain in iv dosed Wistar at 30 mins post administration by gamma counting; format: ADME, organism-based; conditions: rat, in vivo
Cerebellum [19] = assay: Ratio of SUV in cerebellum in iv dosed Wistar at 2 mins post administration by gamma counting to SUV in cerebellum in iv dosed Wistar at 30 mins post administration by gamma counting; format: ADME, organism-based; conditions: rat, in vivo
Cerebrum [20] = assay: Ratio of SUV in cerebrum in iv dosed Wistar at 2 mins post administration by gamma counting to SUV in cerebrum in iv dosed Wistar at 30 mins post administration by gamma counting; format: ADME, organism-based; conditions: rat, in vivo
Cortex = assay: Ratio of SUV in cortex in iv dosed Wistar at 2 mins post administration by gamma counting to SUV in cortex in iv dosed Wistar at 30 mins post administration by gamma counting; format: ADME, organism-based; conditions: rat, in vivo
Hippocampus = assay: Ratio of SUV in hippocampus in iv dosed Wistar at 2 mins post administration by gamma counting to SUV in hippocampus in iv dosed Wistar at 30 mins post administration by gamma counting; format: ADME, organism-based; conditions: rat, in vivo
Striatum = assay: Ratio of SUV in striatum in iv dosed Wistar at 2 mins post administration by gamma counting to SUV in striatum in iv dosed Wistar at 30 mins post administration by gamma counting; format: ADME, organism-based; conditions: rat, in vivo
Cerebellum [21] = assay: Biodistribution in Wistar rat cerebellum at 22 Mbq, iv measured at 2 mins post administration by gamma counting; format: ADME, organism-based; conditions: in vivo
Cerebrum [22] = assay: Biodistribution in Wistar rat cerebrum at 22 Mbq, iv measured at 2 mins post administration by gamma counting; format: ADME, organism-based; conditions: in vivo
Brain [23] = assay: Biodistribution in Wistar rat brain at 22 Mbq, iv measured at 2 mins post administration by gamma counting; format: ADME, organism-based; conditions: in vivo
[24] = molecular target: T1, Metabotropic glutamate receptor 2; assay: Agonist activity at human mGLuR2 expressed in CHO cell membrane assessed as […] after 30 mins by scintillation counting; format: functional, cell membranes
Target sequence in this assay (Q14416 whole entry): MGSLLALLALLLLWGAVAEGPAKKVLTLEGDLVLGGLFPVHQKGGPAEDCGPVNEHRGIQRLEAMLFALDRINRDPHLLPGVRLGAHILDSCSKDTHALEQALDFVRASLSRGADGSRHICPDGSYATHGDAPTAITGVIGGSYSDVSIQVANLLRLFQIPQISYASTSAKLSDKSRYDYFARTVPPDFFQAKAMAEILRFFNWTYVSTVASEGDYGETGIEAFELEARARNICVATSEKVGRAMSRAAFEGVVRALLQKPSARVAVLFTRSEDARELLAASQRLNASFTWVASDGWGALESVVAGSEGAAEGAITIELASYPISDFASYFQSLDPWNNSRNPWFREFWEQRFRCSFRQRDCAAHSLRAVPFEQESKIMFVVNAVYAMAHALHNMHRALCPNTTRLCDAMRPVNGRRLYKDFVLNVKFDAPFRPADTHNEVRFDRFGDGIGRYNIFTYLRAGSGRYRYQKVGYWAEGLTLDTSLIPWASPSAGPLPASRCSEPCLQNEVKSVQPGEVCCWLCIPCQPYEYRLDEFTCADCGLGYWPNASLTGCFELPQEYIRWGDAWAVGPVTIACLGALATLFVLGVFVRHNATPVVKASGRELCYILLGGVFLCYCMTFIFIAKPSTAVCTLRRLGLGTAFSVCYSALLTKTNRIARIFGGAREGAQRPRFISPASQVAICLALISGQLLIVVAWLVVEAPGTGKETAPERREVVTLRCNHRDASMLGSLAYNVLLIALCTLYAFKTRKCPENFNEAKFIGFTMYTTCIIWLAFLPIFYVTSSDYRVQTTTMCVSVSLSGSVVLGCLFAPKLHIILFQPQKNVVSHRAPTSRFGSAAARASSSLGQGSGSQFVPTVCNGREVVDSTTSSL

[25] = molecular target: T1, Metabotropic glutamate receptor 2; assay: Displacement of [3H]JNJ-40068782 from human mGLuR2 expressed in CHO cell membrane after 60 mins by liquid scintillation counting; format: cell membranes
Target sequence in this assay (Q14416 whole entry): as above

COc1c(F)cccc1C1CCN(c2ccn3c(CC4CC4)nnc3c2Cl)CC1
fraction unbound [1]: < 0.01 | fraction unbound [2]: < 0.01 | Drug metabolism (Liver microsomes [3]): Active | Drug metabolism (Liver microsomes [4]): Active | Drug metabolism (Liver microsomes [5]): Active | Drug metabolism (Liver microsomes [6]): Active | Emax [7]: 336%

COc1c(F)ccc(F)c1C1CCN(c2ccn3c(CC4CC4)nnc3c2C(F)(F)F)CC1
fraction unbound [1]: < 0.01 | fraction unbound [2]: < 0.01 | Drug metabolism (Liver microsomes [3]): Active | Drug metabolism (Liver microsomes [4]): Active | Drug metabolism (Liver microsomes [5]): Active | Drug metabolism (Liver microsomes [6]): Active | Selectivity ratio (CHO [8]): > 350 | Selectivity ratio (CHO [9]): > 350 | Selectivity ratio (HEK293 [10]): > 350 | Selectivity ratio (HEK293 [11]): > 350 | Selectivity ratio (HEK293 [12]): > 350 | Selectivity ratio (HEK293 [13]): > 350 | Selectivity ratio (HEK293 [14]): > 350 | Emax [7]: 421%

[11CH3]Oc1ccc(F)c(F)c1C1CCN(c2ccn3c(CC4CC4)nnc3c2Cl)CC1
remaining at 0.5 h [15]: 96.4% | remaining at 0.5 h [16]: 93.1% | remaining at 0.5 h [17]: 45.5% | Drug uptake (Rattus norvegicus): Active | Drug uptake (Liver): Active | Drug uptake (Intestine): Active | Ratio (Brain [18]): 0.93 | Ratio (Cerebellum [19]): 0.95 | Ratio (Cerebrum [20]): 0.84 | Ratio (Cortex): 0.84 | Ratio (Hippocampus): 1.19 | Ratio (Striatum): 0.99 | Drug uptake (Cerebellum [21]): 0.15 %ID | Drug uptake (Cerebrum [22]): 0.46 %ID | Drug uptake (Brain [23]): 0.64 %ID

COc1c(F)cccc1C1CCN(c2ccn3c(CC(F)(F)F)nnc3c2C#N)CC1
fraction unbound [1]: 0.047 | fraction unbound [2]: 0.04 | Drug metabolism (Liver microsomes [3]): Active | Drug metabolism (Liver microsomes [4]): Active | Drug metabolism (Liver microsomes [5]): Active | Drug metabolism (Liver microsomes [6]): Active | Emax [7]: 306% | EC50 ([24]; read-out: EC50): 31 nM

[11CH3]Oc1cccc(F)c1C1CCN(c2ccn3c(CC4CC4)nnc3c2Cl)CC1
Drug uptake (Rattus norvegicus): Active | Drug uptake (Liver): Active | Drug uptake (Intestine): Active | Ratio (Brain [18]): 0.72 | Ratio (Cerebellum [19]): 0.71 | Ratio (Cerebrum [20]): 0.6 | Ratio (Cortex): 0.71 | Ratio (Hippocampus): 0.63 | Ratio (Striatum): 0.59 | Drug uptake (Cerebellum [21]): 0.17 %ID | Drug uptake (Cerebrum [22]): 0.45 %ID | Drug uptake (Brain [23]): 0.65 %ID

COc1cccc(F)c1C1CCN(c2ccn3c(CC4CC4)nnc3c2Cl)CC1
fraction unbound [1]: < 0.01 | fraction unbound [2]: < 0.01 | Drug metabolism (Liver microsomes [3]): Active | Drug metabolism (Liver microsomes [4]): Active | Drug metabolism (Liver microsomes [5]): Active | Drug metabolism (Liver microsomes [6]): Active | Selectivity ratio (CHO [8]): > 350 | Selectivity ratio (CHO [9]): > 350 | Selectivity ratio (HEK293 [10]): > 350 | Selectivity ratio (HEK293 [11]): > 350 | Selectivity ratio (HEK293 [12]): > 350 | Selectivity ratio (HEK293 [13]): > 350 | Selectivity ratio (HEK293 [14]): > 350 | IC50 [25]: 11.2 nM | Emax [7]: 304%

COc1c(C2CCN(c3ccn4c(CC5CC5)nnc4c3Cl)CC2)ccc(F)c1F
fraction unbound [1]: < 0.01 | fraction unbound [2]: < 0.01 | Drug metabolism (Liver microsomes [3]): Active | Drug metabolism (Liver microsomes [4]): Active | Drug metabolism (Liver microsomes [5]): Active | Drug metabolism (Liver microsomes [6]): Active | Emax [7]: 342% | EC50 ([24]; read-out: EC50): 26 nM

[11CH3]Oc1c(F)ccc(F)c1C1CCN(c2ccn3c(CC4CC4)nnc3c2C(F)(F)F)CC1
Ratio (Brain [18]): 1.08 | Ratio (Cerebellum [19]): 0.99 | Ratio (Cerebrum [20]): 0.98 | Ratio (Cortex): 1.04 | Ratio (Hippocampus): 1.01 | Ratio (Striatum): 0.86 | Drug uptake (Cerebellum [21]): 0.17 %ID | Drug uptake (Cerebrum [22]): 0.54 %ID | Drug uptake (Brain [23]): 0.75 %ID

COc1cc(F)cc(F)c1C1CCN(c2ccn3c(CC4CC4)nnc3c2Cl)CC1
fraction unbound [1]: < 0.01 | fraction unbound [2]: < 0.01 | Drug metabolism (Liver microsomes [3]): Active | Drug metabolism (Liver microsomes [4]): Active | Drug metabolism (Liver microsomes [5]): Active | Drug metabolism (Liver microsomes [6]): Active | Selectivity ratio (CHO [8]): > 350 | Selectivity ratio (CHO [9]): > 350 | Selectivity ratio (HEK293 [10]): > 350 | Selectivity ratio (HEK293 [11]): > 350 | Selectivity ratio (HEK293 [12]): > 350 | Selectivity ratio (HEK293 [13]): > 350 | Selectivity ratio (HEK293 [14]): > 350 | IC50 [25]: 5.6 nM | Emax [7]: 256%

COc1ccc(F)c(F)c1C1CCN(c2ccn3c(CC4CC4)nnc3c2Cl)CC1
fraction unbound [1]: < 0.01 | fraction unbound [2]: < 0.01 | Drug metabolism (Liver microsomes [3]): Active | Drug metabolism (Liver microsomes [4]): Active | Drug metabolism (Liver microsomes [5]): Active | Drug metabolism (Liver microsomes [6]): Active | Selectivity ratio (CHO [8]): > 350 | Selectivity ratio (CHO [9]): > 350 | Selectivity ratio (HEK293 [10]): > 350 | Selectivity ratio (HEK293 [11]): > 350 | Selectivity ratio (HEK293 [12]): > 350 | Selectivity ratio (HEK293 [13]): 70 | Selectivity ratio (HEK293 [14]): > 350 | IC50 [25]: 7.3 nM | Emax [7]: 258%

N#Cc1c(N2CCC(c3ccccc3)CC2)ccn2c(CC(F)(F)F)nnc12
EC50 ([24]; read-out: pEC50 (converted)): 56.2 nM

COc1c(F)cccc1C1CCN(c2ccn3c(CC4CC4)nnc3c2C(F)(F)F)CC1
fraction unbound [1]: < 0.01 | fraction unbound [2]: < 0.01 | Drug metabolism (Liver microsomes [3]): Active | Drug metabolism (Liver microsomes [4]): Active | Drug metabolism (Liver microsomes [5]): Active | Drug metabolism (Liver microsomes [6]): Active | Emax [7]: 528% | EC50 ([24]; read-out: EC50): 11 nM

COc1ccccc1C1CCN(c2ccn3c(CC4CC4)nnc3c2Cl)CC1
fraction unbound [1]: < 0.01 | fraction unbound [2]: < 0.01 | Drug metabolism (Liver microsomes [3]): Active | Drug metabolism (Liver microsomes [4]): Active | Drug metabolism (Liver microsomes [5]): Active | Drug metabolism (Liver microsomes [6]): Active | Emax [7]: 345%

COc1ccc(F)cc1C1CCN(c2ccn3c(CC(F)(F)F)nnc3c2Cl)CC1
fraction unbound [1]: < 0.01 | fraction unbound [2]: < 0.01 | Drug metabolism (Liver microsomes [3]): Active | Drug metabolism (Liver microsomes [4]): Active | Drug metabolism (Liver microsomes [5]): Active | Drug metabolism (Liver microsomes [6]): Active | Emax [7]: 340%
